Experiments:
[1] = system: deadnettle; test: Test D preemergence; format: in vivo, Lamium amplexicaule; details: for Plant response rating: Deadnettle: scale 0 to 100
Source text: (§1) Seeds of plant species selected from bluegrass (annual bluegrass, Poa annua), blackgrass (Alopecurus myosuroides), canarygrass (Phalaris minor), chickweed (common chickweed, Stellaria media), galium (catchweed bedstraw, Galium aparine), bromegrass, down (downy bromegrass, Bromus tectorum), Russian thistle (Salsola kali), field poppy (Papaver rhoeas), field violet (Viola arvensis), foxtail, green (green foxtail, Setaria viridis), deadnettle (henbit deadnettle, Lamium amplexicaule), ryegrass, Ital. (Italian ryegrass, Lolium multiflorum), kochia (Kochia scoparia), lambsquarters (Chenopodium album), oilseed rape (Brassica napus), pigweed (Amaranthus retroflexus), chamomile (scentless chamomile, Matricaria inodora), speedwell (bird's-eye speedwell, Veronica persica), barley, spring (spring barley, Hordeum vulgare), wheat, spring (spring wheat, Triticum aestivum), buckwheat, wild (wild buckwheat, Polygonum convolvulus), wild mustard (Sinapis arvensis), oat, wild (wild oat, Avena fatua), radish, wild (wild radish, Raphanus raphanistrum), […]), barley, winter (winter barley, Hordeum vulgare), and wheat, winter (winter wheat, Triticum aestivum) were planted into a silt loam soil and treated preemergence with test chemicals formulated in a non-phytotoxic solvent mixture which included a surfactant. At the same time, these species were planted in pots containing Sunshine Redi-Earth® planting medium comprising spaghnum peat moss, vermiculite, starter nutrients and dolomitic limestone and treated with postemergence applications of the test chemicals formulated in the same manner. Plants ranged in height from 2 to 18 cm (1- to 4-leaf stage). Treated plants and controls were maintained in a controlled growth environment for 14 to 21 d after which time all species were compared to controls and visually evaluated. […] A dash (-) response means no test result.

[2] = system: speedwell; test: Test D postemergence; format: in vivo, Veronica persica; details: scale 0 to 100
Source text: as §1

[3] = system: lambsquarters; test: Test C preemergence; format: in vivo, Chenopodium album; details: for Plant response rating (scale of 0 to 100 where 0 is no effect and 100 is complete control): Lambsquarters, preemergence; for Lambsquarters plant response rating (0 to 100): Preemergence, visual rating after 13 to 15 d
Source text: (§2) Seeds of plant species selected from blackgrass (Alopecurus myosuroides), ryegrass, Italian (Italian ryegrass, Lolium multiflorum), wheat (winter wheat, Triticum aestivum), galium (catchweed bedstraw, Galium aparine), corn (Zea mays), crabgrass, large (large crabgrass, Digitaria sanguinalis), foxtail, giant, (giant foxtail, Setaria faberii), johnsongrass (Sorghum halepense), lambsquarters (Chenopodium album), morningglory (Ipomoea coccinea), nutsedge, yellow (yellow nutsedge, Cyperus esculentus), pigweed (Amaranthus retroflexus), ragweed (common ragweed, Ambrosia elatior), soybean (Glycine max), barnyardgrass (Echinochloa crus-galli), oilseed rape (Brassica napus), waterhemp (common waterhemp, Amaranthus rudis), and velvetleaf (Abutilon theophrasti) were planted into a blend of loam soil and sand and treated preemergence with test chemicals formulated in a non-phytotoxic solvent mixture which included a surfactant. At the same time, plants selected from these crop and weed species and also chickweed (common chickweed, Stellaria media), oat, wild (wild oat, Avena fatua), and kochia (Kochia scoparia), were planted in pots containing Sunshine Redi-Earth® planting medium comprising spaghnum peat moss, vermiculite, starter nutrients and dolomitic limestone and treated with postemergence applications of test chemicals formulated in the same manner. Plants ranged in height from 2 to 18 cm (1- to 4-leaf stage) for postemergence treatments. […] A dash (-) response means no test result.

[4] = system: kochia; test: Test D postemergence; format: in vivo, Kochia scoparia; details: scale 0 to 100
Source text: as §1

[5] = system: wheat, winter; test: Test D postemergence; format: in vivo, Triticum aestivum; details: scale 0 to 100
Source text: as §1

[6] = system: wheat, spring; test: Test D postemergence; format: in vivo, Triticum aestivum; details: scale 0 to 100
Source text: as §1

[7] = system: wild mustard; test: Test D preemergence; format: in vivo, Sinapis arvensis; details: for Plant response rating: Mustard, Wild: scale 0 to 100
Source text: as §1

[8] = system: buckwheat, wild; test: Test D preemergence; format: in vivo, Polygonum convolvulus; details: for Plant response rating: Buckwheat, Wild: scale 0 to 100
Source text: as §1

[9] = system: foxtail, giant; test: Test C preemergence; format: in vivo, Setaria faberii; details: for Plant response rating (scale of 0 to 100 where 0 is no effect and 100 is complete control): Foxtail, Giant, preemergence; for Foxtail, Giant plant response rating (0 to 100): Preemergence, visual rating after 13 to 15 d
Source text: as §2

[10] = system: crabgrass, large; test: Test C preemergence; format: in vivo, Digitaria sanguinalis; details: for Plant response rating (scale of 0 to 100 where 0 is no effect and 100 is complete control): Crabgrass, Large, preemergence; for Crabgrass, Large plant response rating (0 to 100): Preemergence, visual rating after 13 to 15 d
Source text: as §2

[11] = system: pigweed; test: Test D preemergence; format: in vivo, Amaranthus retroflexus; details: for Plant response rating: Pigweed: scale 0 to 100
Source text: as §1

[12] = system: ryegrass, Italian; test: Test C preemergence; format: in vivo, Lolium multiflorum; details: for Ryegrass, Italian plant response rating (0 to 100): Preemergence, visual rating after 13 to 15 d; for Plant response rating (scale of 0 to 100 where 0 is no effect and 100 is complete control): Ryegrass, Italian, preemergence
Source text: as §2

[13] = 16 g ai/ha, 0 is no effect, 100 is complete control

## FC(F)(F)COc1nc(-c2ccccc2)nn1Cc1ccnc(C(F)(F)F)c1 [Compound 24]
[1]; [13]
  Plant response rating (0 to 100), Deadnettle: 30
[1]; 31 g ai/ha
  Plant response rating: Deadnettle: 80
[1]; 62 g ai/ha
  Plant response rating: Deadnettle: 85
[1]; 125 g ai/ha
  Plant response rating: Deadnettle: 100
[2]; 16 g ai/ha
  Plant response rating: Speedwell: 75
[2]; 31 g ai/ha
  Plant response rating: Speedwell: 75
[2]; 62 g ai/ha
  Plant response rating: Speedwell: 75
[2]; 125 g ai/ha
  Plant response rating: Speedwell: 90
[3]; 125 g ai/ha
  Plant response rating (scale of 0 to 100 where 0 is no effect and 100 is complete control): 85
[3]; 250 g ai/ha
  Plant response rating (scale of 0 to 100 where 0 is no effect and 100 is complete control): 85
[3]; 31 g ai/ha
  Lambsquarters plant response rating (0 to 100): 60
[3]; 62 g ai/ha
  Lambsquarters plant response rating (0 to 100): 75
[4]; 16 g ai/ha
  Plant response rating: Kochia: 85
[4]; 31 g ai/ha
  Plant response rating: Kochia: 90
[4]; 62 g ai/ha
  Plant response rating: Kochia: 90
[4]; 125 g ai/ha
  Plant response rating: Kochia: 90
[5]; 16 g ai/ha
  Plant response rating: Wheat, Winter: 15
[5]; 31 g ai/ha
  Plant response rating: Wheat, Winter: 15
[5]; 62 g ai/ha
  Plant response rating: Wheat, Winter: 20
[5]; 125 g ai/ha
  Plant response rating: Wheat, Winter: 20
[6]; 16 g ai/ha
  Plant response rating: Wheat, Spring: 15
[6]; 31 g ai/ha
  Plant response rating: Wheat, Spring: 15
[6]; 62 g ai/ha
  Plant response rating: Wheat, Spring: 25
[6]; 125 g ai/ha
  Plant response rating: Wheat, Spring: 15
[7]; [13]
  Plant response rating (0 to 100), Mustard, Wild: 65
[7]; 62 g ai/ha
  Plant response rating: Mustard, Wild: 100
[7]; 125 g ai/ha
  Plant response rating: Mustard, Wild: 100
[8]; [13]
  Plant response rating (0 to 100), Buckwheat, Wild: 50
[8]; 31 g ai/ha
  Plant response rating: Buckwheat, Wild: 55
[8]; 62 g ai/ha
  Plant response rating: Buckwheat, Wild: 60
[8]; 125 g ai/ha
  Plant response rating: Buckwheat, Wild: 70
[9]; 125 g ai/ha
  Plant response rating (scale of 0 to 100 where 0 is no effect and 100 is complete control): 98
[9]; 250 g ai/ha
  Plant response rating (scale of 0 to 100 where 0 is no effect and 100 is complete control): 100
[9]; 31 g ai/ha
  Foxtail, Giant plant response rating (0 to 100): 80
[9]; 62 g ai/ha
  Foxtail, Giant plant response rating (0 to 100): 95
[10]; 125 g ai/ha
  Plant response rating (scale of 0 to 100 where 0 is no effect and 100 is complete control): 100
[10]; 250 g ai/ha
  Plant response rating (scale of 0 to 100 where 0 is no effect and 100 is complete control): 100
[10]; 31 g ai/ha
  Crabgrass, Large plant response rating (0 to 100): 98
[10]; 62 g ai/ha
  Crabgrass, Large plant response rating (0 to 100): 98
[11]; [13]
  Plant response rating (0 to 100), Pigweed: 95
[11]; 62 g ai/ha
  Plant response rating: Pigweed: 100
[11]; 125 g ai/ha
  Plant response rating: Pigweed: 100
[12]; 31 g ai/ha
  Ryegrass, Italian plant response rating (0 to 100): 5
[12]; 62 g ai/ha
  Ryegrass, Italian plant response rating (0 to 100): 15
[12]; 125 g ai/ha
  Plant response rating (scale of 0 to 100 where 0 is no effect and 100 is complete control): 85
[12]; 250 g ai/ha
  Plant response rating (scale of 0 to 100 where 0 is no effect and 100 is complete control): 90
